Laboratory results published in patent US20040023893A1, “Novel coumarin derivatives and the salts thereof, a process for the preparation thereof and their use in the pharmaceutical field” (priority 2000, published 2004).
Like-named read-outs stand apart in the source and are kept apart here.

Columns and labels:
[1] = system: platelet aggregation, human whole blood; test: Inhibition of collagen-induced platelet aggregation in human whole blood; assay type: cell-based; settings: collagen 1 μg/ml, 1 minute preincubation, count 5 minutes after collagen, vs saline, read-out: CI50 (platelet aggregation)
Method: Test 6—Inhibition of Collagen-Induced Platelet Aggregation in Human Whole Blood
The aggregation event was analysed by counting the single non-aggregated platelets with a cell counter 5 minutes after adding collagen (1 μg/ml). In these working conditions, collagen induces platelet aggregation of over 80%. The test compounds or saline as control were preincubated for 1 minute before the collagen was added.
Table 6 reports the concentrations that inhibit platelet aggregation by 50% compared to saline.

[2] = system: carrageenin-induced oedema in rat paw; test: Carrageenin-induced oedema in rat paw; assay type: in vivo; settings: 2 mg/Kg i.v. 5 minutes before 1.5 mg carrageenin intraplantar, paws weighed 3 hours later, saline controls = 100%
Method: Test 3—Reduction in Inflammation in Carrageenin-Induced Oedema in Rat Paw
A model of acute inflammation induced by intraplantar injection of 1.5 mg of carrageenin in rat paw was used. Administration of the compounds (2 mg/Kg) was by the intravenous route 5 minutes before oedema was induced: 3 hours later the animals were sacrificed and their paws were weighed as an indication of inflammation. The control animals received saline instead of the test compounds. The weight of the paws of the control animals was taken to correspond to 100% on the inflammation index.

[3] = system: superoxide anions, human whole blood; test: Inhibition of superoxide anion formation induced by f-MLP in human whole blood; assay type: cell-based; settings: 20 minutes preincubation at 37° C., f-MLP with cytochalasin B, read-out: CI50 (superoxide anion formation, Cytochrome C)
Method: Test 5—Inhibition of the Formation of Superoxide anions Induced by f-MLP in Human Whole Blood
Samples of whole blood diluted with PBS Cytochrome C were incubated for 20 minutes at 37° C. with the test compounds or saline before adding the chermotactic agent f-MLP (0.1 μm/l) in the presence of cytochalasin B. After 20 minutes of activation with this agent, the samples were centrifuged and readings were taken of the supernatants with a spectrophotometer to assess the reduction in Cytochrome C. Table 5 reports the concentrations that are effective in inhibiting the loss of Cytochrome C by 50%.

[4] = system: Salmonella typhimurium (TA 98 and TA 100) and Escherichia coli (WP2 pKM101 and WP2 uvrA pKM1091); test: Mutagenesis (Mini-Ames test); assay type: cell-based; settings: with and without microsomal liver enzyme preparation
Method: Test 8—Mutagenesis (Mini-Ames Test)
The Mini-Ames test is a version of the traditional Ames test which involves the incubation of bacterial cells on 35-mm dishes instead of 100-mm dishes, and it requires a smaller quantity of product while maintaining the reliability of the result.
The test is conducted on two strains of Salmonella typhimurium requiring histidine (TA 98 and TA 100) and two strains of Escherichia coli requiring tryptophan (WP2 pKM101 and WP2 uvrA pKM1091).
The bacterial cells were exposed to different concentrations of the test compounds in the presence and absence of a microsomal liver enzyme preparation, to reveal any possible metabolite activity.
Mutagenic activity was determined as the ability of the test compound to induce a significant increase in the number of mutant clones compared to those developed spontaneously in the cultures with the control vehicle.

nitrite-nitrate release = test: Inhibition of the release of nitrite-nitrate in rat plasma after LPS; assay type: in vivo; settings: 25 mg/Kg o.s. 30 minutes before and 3 hours after LPS 0.1 mg/Kg i.v., blood 8 hours after LPS, Griess reagent, saline controls = 100%
Method: Test 4—Inhibition of the Release of Nitrite-Nitrate in Rat Plasma
The release of nitrite-nitrite was measured with Griess reagent in blood samples taken 8 hours after the administration of LPS (0.1 mg/Kg) i.v.
The animals were treated with the compounds by o.s. (25 mg/Kg) 30 minutes before and 3 hours after LPS. The control animals received saline instead of the test compounds. The values for the release of nitrite-nitrate were made to correspond to 100%.

[5] = system: TNF release, murine macrophage line (J774); test: Inhibition of TNF release after stimulation with LPS in vitro, J774 macrophages (L929 mortality readout); assay type: cell-based; settings: J774 macrophages stimulated with LPS, concentration (± standard error) inhibiting L929 fibroblast mortality by 50%, read-out: J774 CI50
Method: (§1) Test 1—Inhibition of TNF Release After Stimulation with LPS in vitro
(§2) The test compound was added to the culture medium in a murine macrophage line (J774) or to whole blood anti-coagulated with heparin. The cells were then stimulated with bacterial lipopolysacccharide. After incubation at 37° C. for a suitable length of time, the supernatant was removed from the culture and incubated with a line of murine fibroblasts (L929), sensitive to TNF. The quantity of TNF released after stimulation with LPS is measured by comparing mortality of the L929 cells with that of the controls. Table 1 reports for the single compounds the concentration (±standard error) able to inhibit fibroblast mortality (L929) by 50%.

Male CD-1 mice = test: Toxicity after a single intravenous administration; assay type: in vivo
Description: (§3) Test 7—Toxicity After a Single Intravenous Administration
(§4) Male CD-1 mice were used to assess the maximum non-lethal does (MNLD—the highest does at which no cases of mortality are observed) and the maximum tolerated does (MTD—does at which no evident or marked signs of tocicity or altered behaviour are observed).

IL-1β = test: Inhibition of the release of IL-1β following stimulation with LPS in vivo; settings: rat, blood 120 minutes after LPS, ELISA, vs saline controls
Method: (§5) Test 2—Inhibition of the Release of TNF and IL-β Following Stimulation with LPS in vivo
(§6) Conscious rats were injected with a dose of LPS, which is able to stimulate the release of TNF and IL-1β, having first received an intravenous administration (15 minutes beforehand) of the test compound at a dose of 0.5 mg/Kg or 2 mg/Kg. Blood levels of TNF and IL-1β were measured by the ELISA method on blood samples taken 75 minutes and 120 minutes after LPS respectively.
(§7) Table 2 below reports the percent of inhibition of each product compared to that of the controls treated with saline.

TNF release, human blood = test: Inhibition of TNF release after stimulation with LPS in vitro, whole blood (L929 mortality readout); assay type: cell-based; settings: heparinised whole blood stimulated with LPS; concentration (± standard error) inhibiting L929 fibroblast mortality by 50%; read-out: Human blood CI50
Method: as §1, §2

TNF = test: Inhibition of the release of TNF following stimulation with LPS in vivo; settings: rat, blood 75 minutes after LPS, ELISA, vs saline controls
Method: as §5, §6, §7

[6] = Toxicity after a single intravenous administration; assay type: in vivo; settings: mouse, in vivo, male CD-1 mice, read-out: DMT (maximum tolerated dose, MTD)
Description: as §3, §4

[7] = dose of 0.5 mg/Kg i.v. 15 minutes before LPS
[8] = dose of 2 mg/Kg i.v. 15 minutes before LPS
[9] = iv, dose of 0.5 mg/Kg i.v. 15 minutes before LPS
[10] = iv, dose of 2 mg/Kg i.v. 15 minutes before LPS

Row | Structure (SMILES) | IC50 [1] | /o vs controls (paw weight, inflammation index) [2] | IC50 [3] | Mutagenic activity (Mini-Ames test) [4] | % vs controls (release of nitrite-nitrate) (nitrite-nitrate release) | IC50 [5] | DMNL (maximum non-lethal dose, MNLD) (Male CD-1 mice) | DMT (maximum tolerated dose, MTD) (Male CD-1 mice) | % of inhibition of IL-1β (IL-1β; [7]) | % of inhibition of IL-1β (IL-1β; [8]) | IC50 (TNF release, human blood) | % of inhibition of TNF (TNF; [7]) | % of inhibition of TNF (TNF; [8]) | IC50 ([1]; Platelet) | IC50 ([5]; Mus musculus) | MTD [6] | inhibition at 0.5 mg/kg (IL-1β; [9]) | inhibition at 2 mg/kg (IL-1β; [10]) | inhibition at 0.5 mg/kg (TNF; [9]) | inhibition at 2 mg/kg (TNF; [10])
1 | C=CCc1cc2c(C)c(CN3CCOCC3)c(=O)oc2c(CC=C)c1OCCCOc1c(CC=C)cc2c(C)c(CN3CCOCC3)c(=O)oc2c1CC=C.Cl.Cl [Compound 203152] | > 100 µM | 90 /o | > 100 µM | None of the tested compounds (203152, 201273, 201326 and 201330) proved to be mutagenic | 108% | 13.3 ± 9 µM | 200 mg(Kg | 50 mg/kg | 64% | 60% | > 80 µM | 72% | 73% |  |  |  |  |  |  | 
2 | CCCCC(O)COc1ccc2c(C)c(CCN(CC)CC)c(=O)oc2c1Cl.Cl (centres unmarked) [Compound 201326] | 78 µM | 58 /o | > 100 µM | None of the tested compounds (203152, 201273, 201326 and 201330) proved to be mutagenic | 62% | 10.5 ± 3 µM | 50 mg(Kg | 6.25 mg/kg | 40% | 62% | 23 ± 2 µM | 85% | 77% |  |  |  |  |  |  | 
3 | COc1ccc2c(c1)c(CC(=O)O)c(C)n2C(=O)c1ccc(Cl)cc1 [Indomethacin, reference compound] |  | 57 /o |  |  |  |  |  |  |  |  |  |  |  |  |  |  |  |  |  | 
4 | CCCCC(O)COc1ccc2c(C)c(CCN(CC)CC)c(=O)oc2c1.Cl (centres unmarked) [Compound 201273] | > 100 µM | 67 /o | > 100 µM | None of the tested compounds (203152, 201273, 201326 and 201330) proved to be mutagenic | 76% | 27.5 ± 5.3 µM | 100 mg(Kg | 25 mg/kg | 67% | 39% | 40.4 ± 13.5 µM | 72% | 84% |  |  |  |  |  |  | 
5 | CCOC(=O)[C@@H](N)CSCC(O)COc1ccc2c(C)c(CCN(CC)CC)c(=O)oc2c1.Cl.Cl (some centres unmarked) [Compound 201261] | > 100 µM | 86 /o |  |  | 98% | 25.4 µM | 200 mg(Kg | 50 mg/kg |  |  | 9 µM |  |  |  |  |  |  |  |  | 
6 | C[C@H]1C[C@@H]2[C@H]([C@@H](O)C[C@@]3(C)[C@H]2CC[C@]3(O)C(=O)CO)[C@@]2(C)C=CC(=O)C=C12 [Methylprednisolone, reference compound] |  | 56 /o |  |  |  |  |  |  |  |  |  |  |  |  |  |  |  |  |  | 
7 | CCCCC[C@H](O)/C=C/[C@@H]1[C@H]2C/C(=C/CCCC(=O)O)O[C@H]2C[C@H]1O [PG12, reference compound] | 0.05 µM |  |  |  |  |  |  |  |  |  |  |  |  |  |  |  |  |  |  | 
8 | CCOC(=O)COc1ccc2c(C)c(CCN(CC)CC)c(=O)oc2c1Cl [Compound 201006, Cloricromene, reference compound] |  | 79 /o | 52 µM |  | 99% |  | 12.5 mg(Kg |  |  |  | 78.6 ± 10 µM |  |  | 35 µM | 57.9 ± 20 µM | 6.25 mg/kg | 45% | 28% | 9% | 30%
9 | C[C@H]1C[C@H]2[C@@H]3CCC4=CC(=O)C=C[C@]4(C)[C@@]3(F)[C@@H](O)C[C@]2(C)[C@@]1(O)C(=O)CO [Betamethasone, reference compound] |  |  |  |  | 20% |  |  |  |  |  |  |  |  |  |  |  |  |  |  | 
10 | CCN(CC)CCc1c(C)c2ccc(OCC(=O)NC3CCCCC3)c(Cl)c2oc1=O.Cl.Cl [Compound 201330] | 93 µM | 77 /o | 36 µM | None of the tested compounds (203152, 201273, 201326 and 201330) proved to be mutagenic |  | 12 ± 3.9 µM | 50 mg(Kg | 25 mg/kg | 33% | 57% | 12.6 ± 3.5 µM | 75% | 62% |  |  |  |  |  |  | 
